Assay results reported in patent publication US20210392892A1, “COMPOSITIONS COMPRISING PYRIDINE CARBOXYLATE HERBICIDES AND ACETYL COA CARBOXYLASE (ACCASE) INHIBITOR HERBICIDES” (Corteva Agriscience LLC, priority 2018, published 2021).

Experiments:
Assay in all cases: Greenhouse postemergence herbicidal effect (visual injury)
Type in all cases: in vivo
[1] = tested on: SORVU, Sorghum vulgare (grain sorghum)
Excerpt: (§1) Seeds of the desired test plant species were planted in a 90:10% v/v (volume/volume) mixture of PRO-MIX® BX (Premier Tech Horticulture, Quakertown, Pa., USA) and PROFILE® GREENS GRADE™ (Profile Products LLC, Buffalo Grove, Ill., USA) planting mixture, which typically has a pH of 5.2 to 6.2 and an organic matter content of at least 50 percent, in plastic pots with a surface area of 103.2 square centimeters (cm^2). In some aspects, to help ensure good germination and healthy plants, a fungicide treatment and/or other chemical or physical treatment was applied. The plants were grown for 7-36 days (d) in a greenhouse with an approximate 14-hour (h) photoperiod which was maintained at about 23° C. during the day and 22° C. during the night. Nutrients and water were added on a regular basis and supplemental lighting was provided with overhead metal halide 1000-Watt lamps as necessary. The plants were employed for testing when they reached the second or third true leaf stage.
(§2) Emulsifiable concentrates of each of each pyridine carboxylate herbicide (Compound A or Compound B) were prepared at 100 grams acid equivalent per liter (g ae/L). The emulsifiable concentrates also included a safener, cloquintocet-mexyl, at 120 grams active ingredient per liter (g ai/L), unless otherwise noted below. An aliquot of each emulsifiable concentrate was placed in a 25 mL glass vial and diluted with an aqueous mixture of 1.25% (v/v) ACTIROB® B esterified rapeseed oil (Bayer Crop Science, Research Triangle Park, N.C., USA) or MSO® Concentrate with LECI-TECH® methylated soybean oil (Loveland Products, Loveland, Colo., USA) to obtain concentrated stock solutions at the highest application rate for each herbicide, based upon a 12 milliliter (mL) application volume at a rate of 187 liters per hectare (L/ha). The concentrated stock solutions were further diluted with an aqueous mixture of 1.25% v/v ACTIROB® B or MSO® Concentrate with LECI-TECH® to obtain stock solutions at reduced application rates for each herbicide. Spray solutions of the herbicide combinations (Compound A or Compound B plus ACCase inhibitor herbicide) were prepared by adding weighed amounts or aliquots of the ACCase inhibitor herbicide to the stock solutions of Compound A or Compound B to form 12-mL spray solutions in two-way combinations.
(§3) The spray solutions were applied to the plant material with an overhead Mandel track sprayer equipped with 8002E nozzles calibrated to deliver 187 L/ha over an application area of 0.503 square meters (m^2) at a spray height of 18 inches (43 centimeters (cm)) above the average plant canopy. Control plants were sprayed in the same manner with the solvent blank. All pyridine carboxylate herbicide (component a) application rates are given as “g ae/ha” and all ACCase inhibitor herbicide (component b) application rates are given as “g ai/ha.”
(§4) The treated plants and control plants were placed in a greenhouse as described above and watered by sub-irrigation to prevent wash-off of the test compounds. After 20-22 d, the condition of the test plants as compared with that of the control plants was determined visually and scored on a scale of 0 to 100 percent where 0 corresponds to no injury and 100 corresponds to complete kill.

[2] = tested on: SETFA, Setaria faberi (giant foxtail)
Excerpt: as §1, §2, §3, §4

[3] = tested on: LOLMG, Lolium multiflorum subsp. gaudini (annual ryegrass)
Excerpt: as §1, §2, §3, §4

[4] = tested on: CYPES, Cyperus esculentus (nutsedge)
Excerpt: as §1, §2, §3, §4

[5] = tested on: ALOMY, Alopecurus myosuroides (blackgrass)
Excerpt: as §1, §2, §3, §4

[6] = tested on: AVEFA, Avena fatua (wild oat)
Excerpt: as §1, §2, §3, §4

[7] = tested on: LOLMU, Lolium multiflorum (Italian ryegrass)
Excerpt: as §1, §2, §3, §4

[8] = tested on: ECHCG, Echinochloa crus-galli (barnyardgrass)
Excerpt: as §1, §2, §3, §4

[9] = tested on: ORYSA, Oryza sativa (common rice)
Excerpt: as §1, §2, §3, §4

[10] = tested on: ZEAMX, Zea mays (maize)
Excerpt: as §1, §2, §3, §4

[11] = tested on: DIGSA, Digitaria sanguinalis (large crabgrass)
Excerpt: as §1, §2, §3, §4

[12] = tested on: LEFCH, Leptochloa chinensis (Chinese sprangletop)
Excerpt: as §1, §2, §3, §4

[13] = tested on: POLCO, Polygonum convolvulus (wild buckwheat)
Excerpt: as §1, §2, §3, §4

[14] = tested on: STEME, Stellaria media (chickweed)
Excerpt: as §1, §2, §3, §4

[15] = tested on: CIRAR, Cirsium arvense (Canadian thistle)
Excerpt: as §1, §2, §3, §4

[16] = tested on: GLXMA, Glycine max (soybean)
Excerpt: as §1, §2, §3, §4

[17] = tested on: KCHSC, Kochia scoparia (kochia)
Excerpt: as §1, §2, §3, §4

[18] = tested on: IPOHE, Ipomoea hederacea (ivyleaf morningglory)
Excerpt: as §1, §2, §3, §4

[19] = tested on: ABUTH, Abutilon theophrasti (velvetleaf)
Excerpt: as §1, §2, §3, §4

[20] = tested on: RUMOB, Rumex obtusifolius (broad-leaf dock)
Excerpt: as §1, §2, §3, §4

[21] = tested on: VIOTR, Viola tricolor (wild pansy)
Excerpt: as §1, §2, §3, §4

[22] = tested on: BRSNW, Brassica napus (winter rape)
Excerpt: as §1, §2, §3, §4

[23] = tested on: HELAN, Helianthus annuus (common sunflower)
Excerpt: as §1, §2, §3, §4

[24] = tested on: BRSNN, Brassica napus (spring rape); conditions: 70 g ai/ha
Excerpt: as §1, §2, §3, §4

Compound: CCON=C(CC)C1=C(O)CC(c2c(C)cc(C)cc2C)CC1=O (stereo not shown) [Tralkoxydim, 2-[1-(ethoxyimino)propyl]-3-hydroxy-5-mesitylcyclohex-2-enone]
- % visual injury, Obs ([1]; 100 g ai/ha): 65%
- % visual injury, Obs ([2]; 100 g ai/ha): 40%
- % visual injury, Obs ([3]; 100 g ai/ha): 70%

Compound: Fenoxaprop
- % visual injury, Obs ([4]; 46 g ai/ha): 0%
- % visual injury, Obs ([5]; 46 g ai/ha): 0%
- % visual injury, Obs ([6]; 46 g ai/ha): 68%
- % visual injury, Obs ([7]; 46 g ai/ha): 5%
- % visual injury, Obs ([2]; 46 g ai/ha): 100%
- % visual injury, Obs ([8]; 46 g ai/ha): 100%
- % visual injury, Obs ([9]; 46 g ai/ha): 35%
- % visual injury, Obs ([3]; 46 g ai/ha): 0%
- % visual injury, Obs ([10]; 46 g ai/ha): 100%
- % visual injury, Obs ([11]; 46 g ai/ha): 96%

Compound: CCOC(=O)[C@@H](C)Oc1ccc(Oc2cnc3cc(Cl)ccc3n2)cc1 [Quizalofop-P-ethyl, reference compound]
- % visual injury, Obs ([2]; SETFA, Compound A 0 g/ha, Quizalofop-P-ethyl 75 g/ha): 100%
- % visual injury, Obs ([12]; LEFCH, Compound A 0 g/ha, Quizalofop-P-ethyl 75 g/ha): 100%

Compound: C#CCOC(=O)c1nc(-c2ccc3cc[nH]c3c2F)c(F)c(N)c1Cl [Compound B, propargyl 4-amino-3-chloro-5-fluoro-6-(7-fluoro-1H-indol-6-yl)pyridine-2-carboxylate]
- % visual injury, Obs ([1]; 7.5 g ae/ha, with cloquintocet-mexyl): 10%
- % visual injury, Obs ([1]; 10 g ae/ha, with cloquintocet-mexyl): 20%

Compound: COC(=O)[C@@H](C)Oc1ccc(Oc2ncc(C(F)(F)F)cc2Cl)cc1 [Haloxyfop-R-methyl, reference compound]
- % visual injury, Obs ([2]; SETFA, Compound A 0 g/ha, Haloxyfop-R-methyl 70 g/ha): 100%
- % visual injury, Obs ([12]; LEFCH, Compound A 0 g/ha, Haloxyfop-R-methyl 70 g/ha): 100%

Compound: C#CCOC(=O)[C@@H](C)Oc1ccc(Oc2ncc(Cl)cc2F)cc1
- % visual injury, Obs ([2]; 30 g ai/ha): 98%
- % visual injury, Obs ([9]; 30 g ai/ha): 83%
- % visual injury, Obs ([3]; 30 g ai/ha): 15%
- % visual injury, Obs ([10]; 30 g ai/ha): 90%

Compound: CCc1cc(C)cc(CC)c1-c1c(OC(=O)C(C)(C)C)n2n(c1=O)CCOCC2 [Pinoxaden]
- % visual injury, Obs ([2]; 30 g ai/ha): 10%
- % visual injury, Obs ([9]; 30 g ai/ha): 99%
- % visual injury, Obs ([3]; 30 g ai/ha): 94%
- % visual injury, Obs ([10]; 30 g ai/ha): 5%

Compound: Fluazifop [reference compound]
- % visual injury, Obs ([4]; 105 g ai/ha): 5%
- % visual injury, Obs ([4]; CYPES, Compound A 0 g/ha, Fluazifop 105 g/ha): 0%
- % visual injury, Obs ([1]; SORVU, Compound A 0 g/ha, Fluazifop 105 g/ha): 100%
- % visual injury, Obs ([5]; 105 g ai/ha): 93%
- % visual injury, Obs ([5]; ALOMY, Compound A 0 g/ha, Fluazifop 105 g/ha): 85%
- % visual injury, Obs ([13]; POLCO, Compound A 0 g/ha, Fluazifop 105 g/ha): 0%
- % visual injury, Obs ([6]; 105 g ai/ha): 93%
- % visual injury, Obs ([6]; AVEFA, Compound A 0 g/ha, Fluazifop 105 g/ha): 95%
- % visual injury, Obs ([14]; STEME, Compound A 0 g/ha, Fluazifop 105 g/ha): 0%
- % visual injury, Obs ([15]; CIRAR, Compound A 0 g/ha, Fluazifop 105 g/ha): 5%
- % visual injury, Obs ([16]; GLXMA, Compound A 0 g/ha, Fluazifop 105 g/ha): 28%
- % visual injury, Obs ([7]; 105 g ai/ha): 80%
- % visual injury, Obs ([7]; LOLMU, Compound A 0 g/ha, Fluazifop 105 g/ha): 88%
- % visual injury, Obs ([2]; 105 g ai/ha): 90%
- % visual injury, Obs ([2]; SETFA, Compound A 0 g/ha, Fluazifop 105 g/ha): 85%
- % visual injury, Obs ([8]; 105 g ai/ha): 95%
- % visual injury, Obs ([8]; ECHCG, Compound A 0 g/ha, Fluazifop 105 g/ha): 95%
- % visual injury, Obs ([17]; KCHSC, Compound A 0 g/ha, Fluazifop 105 g/ha): 0%
- % visual injury, Obs ([18]; IPOHE, Compound A 0 g/ha, Fluazifop 105 g/ha): 0%
- % visual injury, Obs ([19]; ABUTH, Compound A 0 g/ha, Fluazifop 105 g/ha): 0%
- % visual injury, Obs ([12]; 105 g ai/ha): 100%
- % visual injury, Obs ([12]; LEFCH, Compound A 0 g/ha, Fluazifop 105 g/ha): 98%
- % visual injury, Obs ([20]; RUMOB, Compound A 0 g/ha, Fluazifop 105 g/ha): 0%
- % visual injury, Obs ([21]; VIOTR, Compound A 0 g/ha, Fluazifop 105 g/ha): 3%
- % visual injury, Obs ([22]; BRSNW, Compound A 0 g/ha, Fluazifop 105 g/ha): 0%
- % visual injury, Obs ([23]; HELAN, Compound A 0 g/ha, Fluazifop 105 g/ha): 0%
- % visual injury, Obs ([11]; 105 g ai/ha): 95%
- % visual injury, Obs ([11]; DIGSA, Compound A 0 g/ha, Fluazifop 105 g/ha): 95%

Compound: CCCC(=NOCC)C1=C(O)CC(CC(C)SCC)CC1=O (stereo not shown) [Sethoxydim, reference compound]
- % visual injury, Obs ([14]; 70 g ai/ha): 0%
- % visual injury, Obs [24]: 0%
- % visual injury, Obs ([17]; 70 g ai/ha): 0%
- % visual injury, Obs ([20]; 70 g ai/ha): 0%

Compound: CCSC(C)CC1CC(=O)C(C(CC)=NOC/C=C/Cl)=C(O)C1 (stereo not shown) [Clethodim, reference compound]
- % visual injury, Obs ([1]; 70 g ai/ha): 98%
- % visual injury, Obs ([13]; 70 g ai/ha): 0%
- % visual injury, Obs ([14]; 70 g ai/ha): 0%
- % visual injury, Obs ([15]; 70 g ai/ha): 0%
- % visual injury, Obs ([16]; 70 g ai/ha): 5%
- % visual injury, Obs ([2]; 70 g ai/ha): 90%
- % visual injury, Obs ([17]; 70 g ai/ha): 0%
- % visual injury, Obs ([18]; 70 g ai/ha): 0%
- % visual injury, Obs ([19]; 70 g ai/ha): 0%
- % visual injury, Obs ([12]; 70 g ai/ha): 95%
- % visual injury, Obs ([20]; 70 g ai/ha): 0%
- % visual injury, Obs ([21]; 70 g ai/ha): 0%
- % visual injury, Obs ([22]; 70 g ai/ha): 0%
- % visual injury, Obs ([23]; 70 g ai/ha): 0%
